# Reference: US20110045101A1, “FUNGICIDAL SUBSTITUTED AZOLES” (E.I. Du Pont De Nemours and Company, priority 2009, published 2011)
# Marks after values point to notes of the source that are not given here.
# Tests used:
# Format in all cases: in vivo
# Details in all cases: 100 = 100% disease control
# Botrytis cinerea = assay: Test C: tomato Botrytis on tomato seedlings, sprayed the day before inoculation, visual disease rating
# Outline: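 Spray to run-off on tomato seedlings; test conc. 200 ppm (≈500 g/ha), some entries 40 ppm. Formulation: acetone 3% of final vol., then acetone/water 50:50 + 250 ppm polyhydric alcohol ester surfactant.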
# Alternaria solani = assay: Test D: tomato early blight, sprayed the day before inoculation, visual disease rating
# Outline: (§1)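 Spray suspension: acetone 3% of final volume, then 50/50 acetone/water plus 250 ppm Trem® 014. Applied to run-off on seedlings at 200 ppm (≈500 g/ha); starred entries tested at 40 ppm.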
# Septoria nodorum = assay: Test F: wheat glume blotch on wheat seedlings, sprayed the day before inoculation, visual disease rating
# Outline: as §1
# Septoria tritici = assay: Test G: wheat leaf blotch on wheat seedlings, sprayed the day before inoculation, visual disease rating
# Outline: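 Spray to run-off, 200 ppm (≈500 g/ha; starred = 40 ppm), acetone/water 50/50 + 250 ppm Trem® 014. Spore inoculation +1 d. 24° C saturated 48 h → 20° C 19 d. Visual rating.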
# [1] = system: Puccinia recondita f. sp. tritici; assay: Test H: wheat leaf rust, test suspension sprayed after inoculation of wheat seedlings, visual disease rating
# Excerpt: General protocol for preparing test suspensions for Tests A-J: The test compounds were first dissolved in acetone in an amount equal to 3% of the final volume and then suspended at the desired concentration (in ppm) in acetone and purified water (50/50 mix) containing 250 ppm of the surfactant Trem® 014 (polyhydric alcohol esters). The resulting test suspensions were then used in tests A-J. Spraying a 200 ppm test suspension to the point of run-off on the test plants was the equivalent of a rate of 500 g/ha. […] Wheat seedlings were inoculated with a spore suspension of Puccinia recondita f. sp. tritici (the causal agent of wheat leaf rust) and incubated in a saturated atmosphere at 20° C. for 24 h, and then moved to a growth chamber at 20° C. for 2 days. […] A dash (-) indicates no test results. All results are for 200 ppm except where followed by “*”, which indicates 40 ppm.
# [2] = system: Puccinia recondita f. sp. tritici; assay: Test I: wheat leaf rust on wheat seedlings, sprayed the day before inoculation, visual disease rating
# Outline: as §1
# [3] = system: Erysiphe graminis f. sp. tritici; assay: Test J: wheat powdery mildew on wheat seedlings, sprayed the day before inoculation, visual disease rating
# Outline: as §1
# [4] = 200 ppm, 0 = no control relative to controls
SMILES,Test C disease control rating (Botrytis cinerea; [4]),Test D disease control rating (Alternaria solani; [4]),Test F disease control rating (Septoria nodorum; [4]),Test G disease control rating (Septoria tritici; [4]),"Test H disease control rating [1, 4]","Test I disease control rating [2, 4]","Test J disease control rating [3, 4]",other results
Cc1nc(Cl)n(-c2ccc(Cl)c(F)c2)c1-c1ccnc(Br)c1 [compound 354],100%,99%,0%,93%,0%,98%,97%,–
COc1cc(F)c(-c2c(Cl)nc(Br)n2-c2ccc(C)c(I)c2)c(F)c1 [compound 655],–,–,–,–,–,–,–,Test C disease control rating (Botrytis cinerea; 40 ppm (marked *)): 8* %; Test D disease control rating (Alternaria solani; 40 ppm (marked *)): 0* %; Test F disease control rating (Septoria nodorum; 40 ppm (marked *)): 0* %; Test G disease control rating (Septoria tritici; 40 ppm (marked *)): 97* %; Test H disease control rating ([1]; 40 ppm (marked *)): 49* %; Test I disease control rating ([2]; 40 ppm (marked *)): 9* %; Test J disease control rating ([3]; 40 ppm (marked *)): 0* %
COc1ccc(Cl)c(-c2c(Cl)nc(Cl)n2-c2ccc(Cl)cc2)c1F [compound 518],100%,99%,99%,98%,0%,98%,100%,–
CCc1cccc(-n2c(C)nc(Cl)c2-c2c(F)ccc(OC)c2F)c1 [compound 418],100%,100%,99%,100%,0%,97%,100%,–
COc1ccc(F)c(-c2c(Cl)nc(Cl)n2-c2ccc(C)cc2)c1F [compound 310],99%,100%,99%,96%,61%,100%,100%,–
Fc1ccc(F)c(-c2c(Br)ncn2-c2ccc(Cl)cc2)c1Cl [compound 343],100%,97%,64%,94%,0%,93%,98%,–
Cc1nc(Cl)c(Cc2c(F)cc(F)cc2F)n1-c1ccc(Cl)cc1 [compound 531],100%,0%,0%,99%,41%,99%,95%,–
CCOc1ccc(F)c(-c2c(Cl)nc(Br)n2-c2ccc(Cl)cc2)c1F [compound 662],100%,99%,100%,99%,0%,98%,100%,–
COc1ccc(F)c(-c2c(Cl)ncn2Cc2ccc(Cl)cc2)c1F [compound 270],–,–,–,–,–,–,–,"Test C disease control rating (Botrytis cinerea; 200 ppm, 0 = no control): 100%; Test D disease control rating (Alternaria solani; 200 ppm, 0 = no control): 100%; Test F disease control rating (Septoria nodorum; 200 ppm, 0 = no control): 98%; Test G disease control rating (Septoria tritici; 200 ppm, 0 = no control): 86%; Test H disease control rating ([1]; 200 ppm, 0 = no control): 0%; Test I disease control rating ([2]; 200 ppm, 0 = no control): 99%; Test J disease control rating ([3]; 200 ppm, 0 = no control): 96%"
